The results in this text go back to PMC7956620 (Molecules, 2021).

The assay deals with T1, human 5-HT3A receptor (Homo sapiens, UniProt P46098).
T1 construct: host or cells: Xenopus laevis oocytes injected with in vitro transcribed mRNA
T1 sequence (P46098 24-478): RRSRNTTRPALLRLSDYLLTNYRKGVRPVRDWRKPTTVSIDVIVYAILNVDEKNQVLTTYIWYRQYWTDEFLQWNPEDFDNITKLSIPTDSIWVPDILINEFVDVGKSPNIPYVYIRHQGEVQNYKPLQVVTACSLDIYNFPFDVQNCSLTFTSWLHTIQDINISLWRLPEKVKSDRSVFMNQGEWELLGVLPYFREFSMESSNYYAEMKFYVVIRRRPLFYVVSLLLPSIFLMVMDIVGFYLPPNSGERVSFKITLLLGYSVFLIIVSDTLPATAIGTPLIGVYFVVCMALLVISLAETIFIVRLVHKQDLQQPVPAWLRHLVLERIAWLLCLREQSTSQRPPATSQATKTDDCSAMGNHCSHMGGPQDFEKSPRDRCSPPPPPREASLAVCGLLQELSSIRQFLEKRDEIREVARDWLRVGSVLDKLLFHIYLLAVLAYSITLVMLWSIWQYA
Briefly: cell-based. Type of assay: cell-based. As to the method: Human 5-hydroxytryptamine (serotonin) receptor 3A cDNA (Genebank number: BC004453) was obtained from OriGene (Rockville, MD, USA). Figure 1A represents the chemical structure of two ergot alkaloids, EG and EC, obtained from Sigma-Aldrich (St. Louis, MO, USA). These ergot alkaloids were diluted in bath solution after dissolving in dimethyl sulfoxide (DMSO) for use as stock solutions. The final treatment concentration of DMSO was less than 0.01%. Xenopus laevis frogs were obtained from the Korean Xenopus Resource Center for Research (KXRCR000001, Chuncheon, Gangwondo, Korea), and other agents were purchased from Sigma-Aldrich.
To isolate oocytes, female Xenopus laevis were put into a container filled with ice and left for about one hour. When the blood vessels contracted and fell into a state similar to hibernation, the abdomen was incised, and the ovaries were removed and cut into small pieces in Ca^2+-free OR2 solution (82.5 mM NaCl, 2.5 mM KCl, 1 mM MgCl2, and 5 mM HEPES, pH 7.4) with 2 mg/mL collagenase. After a 2 h agitation to digest the follicle membranes, isolated oocytes in stages Ⅴ and Ⅵ were selected and washed repeatedly. The selected oocytes were maintained in ND96 incubation solution (96 mM NaCl, 2 mM KCl, 1.8 mM CaCl2, 1 mM MgCl2, 5 mM HEPES, 2.5 mM sodium pyruvate, and 50 µg/mL gentamycin, pH 7.4) at 16–18 °C. The solution containing the oocytes was changed twice a day and stored in a shaking incubator. Under the microscope, the end of a glass capillary was broken and fitted with a 20 µm diameter needle and filled with mineral oil, discharging air bubbles from the tip. When the Xenopus oocytes were ready for injection, 50 ng of mRNA was injected with a nanoliter injector (Drummond Scientific, Vernon Hills, IL, USA). The recording was started after two days of sufficient shaking incubation in ND96 solution. Surgery, microinjections, and the other handling of Xenopus laevis followed the standard protocols.
The oocytes in which mRNA was expressed during the incubation period allowed for the estimation of channel or receptor properties for observing drug and ligand potential interactions using a two-electrode voltage clamp (OC-725C; Warner Instruments, Hamden, CT, USA) and Digidata (1322A; Molecular Devices, Sunnyvale, CA, USA). The two-electrode voltage clamp had voltage and current electrodes that stably maintained the potential and delivered the transmembrane potential and high current. […] A computer transferred the converted output amplitude of the voltage clamp amplifiers to an input digital converter using pClamp 10 software (Axon Instruments, Union City, CA, USA). The voltage and current electrodes were filled with 3 M KCl (0.3–0.7 MΩ) and analyzed at a −80 mV holding potential. The oocytes were placed in the chamber and exposed to a ND96 solution at a flow rate of 2 mL per minute. In the electrophysiological experiments, the voltage ramp recording was performed at room temperature, and a current from −80 to +60 mV was applied to determine the current and voltage relationships. Inward peak traces of the 5-HT3A receptor and voltage ramp traces were converted to a value through Clampfit 9.0 (Molecular Devices, San Jose, CA, USA).
In the experiments, all data were represented as the mean ± SEM (standard error of the mean) of the 5-HT-stimulated inward peak in the 5-HT3A receptors. […] All curves plotted through the Hill equation were generated using Origin Pro 7.0 (OriginLab, Northampton, MA, USA). The significance of differences between the control and chanoclavine treatment was determined according to the p-value in the Student’s t-test. p-values of less than 0.05 were considered statistically significant.

Turning to `NCCc1c[nH]c2ccc(O)cc12` [5-HT, 5-hydroxytryptamine, reference compound], the “Imax of normalized 5-HT concentration-response current” value amounted to 99.1 ± 14.2.

In the case of `C[C@@H](CO)NC(=O)[C@@H]1C=C2c3cccc4[nH]cc(c34)C[C@H]2N(C)C1` [ergonovine, reference compound], the inhibition – broadly, the share of the control response that was lost under treatment – at 100 µM (100 µM compound with 100 µM 5-HT, −80 mV, read-out: inhibition of I5-HT) was found to be 1.1 ± 4.8%. For the same molecule, the “maximum inhibition (Imax)” value (Hill fit, co-application with 100 µM 5-HT, −80 mV) is 15 ± 5.7%. Where the note is “various concentrations with 100 µM 5-HT”, the “effect of co-application with 5-HT on current” value is given as “did not show any noticeable reduction”. Also, the “effect of compound alone (without 5-HT)” value (−80 mV holding potential, data not shown) was “no change”.
